From ChEMBL document CHEMBL1141127, “Investigation of the binding determinants of phosphopeptides targeted to the SRC homology 2 domain of the signal transducer and activator of transcription 3. Development of a high-affinity peptide inhibitor” (J Med Chem, 2005)
Square brackets hold non-standard residues; d marks the D form. Peptide text beside a SMILES is read from it. pY = N[C@@H](Cc1ccc(OP(=O)(O)O)cc1)C(=O)O; Dip = N[C@H](C(=O)O)C(c1ccccc1)c1ccccc1; NMeL = CN[C@@H](CC(C)C)C(=O)O

What was measured:
[1] = target: T1, Signal transducer and activator of transcription 3 (Homo sapiens, UniProt P40763); assay: Inhibitory concentration against signal transducer and activator of transcription 3 (stat3) using 5-carboxyfluoresceinyl-Ala-Tyr(PO3H2)-Leu-Pro-Gln-Thr-Val-NH2 by FP assay
[2] = target: T1, Signal transducer and activator of transcription 3; assay: Inhibitory concentration against signal transducer and activator of transcription 3 (stat3) by (EMSA) electrophoretic mobility shift assay

T1 sequence (P40763 whole entry): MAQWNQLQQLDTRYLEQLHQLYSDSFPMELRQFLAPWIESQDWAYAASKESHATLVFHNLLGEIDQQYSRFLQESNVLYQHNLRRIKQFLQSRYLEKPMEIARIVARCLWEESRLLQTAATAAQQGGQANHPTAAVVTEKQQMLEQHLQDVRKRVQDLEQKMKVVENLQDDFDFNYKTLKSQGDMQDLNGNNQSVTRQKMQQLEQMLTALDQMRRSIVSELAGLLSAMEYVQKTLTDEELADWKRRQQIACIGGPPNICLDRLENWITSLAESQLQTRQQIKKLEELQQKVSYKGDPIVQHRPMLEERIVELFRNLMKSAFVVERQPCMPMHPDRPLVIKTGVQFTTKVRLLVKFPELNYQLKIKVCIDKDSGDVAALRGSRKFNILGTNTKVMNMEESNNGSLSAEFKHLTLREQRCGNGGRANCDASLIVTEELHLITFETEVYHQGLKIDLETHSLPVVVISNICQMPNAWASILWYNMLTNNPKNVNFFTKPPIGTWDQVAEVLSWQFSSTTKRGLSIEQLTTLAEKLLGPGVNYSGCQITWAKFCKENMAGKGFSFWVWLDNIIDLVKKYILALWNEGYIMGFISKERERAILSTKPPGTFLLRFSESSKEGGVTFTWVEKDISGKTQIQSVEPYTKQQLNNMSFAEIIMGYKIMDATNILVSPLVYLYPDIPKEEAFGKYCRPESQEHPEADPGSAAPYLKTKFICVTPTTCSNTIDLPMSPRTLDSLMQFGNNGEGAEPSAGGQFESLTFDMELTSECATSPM

| IC50 [1] [nM] | SMILES | IC50 [2] [nM] |
| --- | --- | --- |
|  | CC(=O)N[C@@H](Cc1ccc(OP(=O)(O)O)cc1)C(=O)N[C@@H](CC(C)C)C(=O)N1CCC[C@H]1C(=O)N[C@@H](CCC(N)=O)C(=O)N[C@H](C(N)=O)[C@@H](C)O | 600 |
|  | CC(=O)N[C@@H](Cc1ccc(OP(=O)(O)O)cc1)C(=O)N[C@@H](CC(C)C)C(=O)N1CCC[C@H]1C(=O)N[C@@H](CCC(N)=O)C(N)=O (Ac-[pY]LPQ-NH2) | 1000 |
| > 100000 | CC(=O)N[C@@H](Cc1ccc(OP(=O)(O)O)cc1)C(=O)N[C@H](C(=O)N1CCC[C@H]1C(=O)N[C@@H](CCC(N)=O)C(=O)N[C@H](C(N)=O)[C@@H](C)O)C(c1ccccc1)c1ccccc1 (Ac-[pY][Dip]PQT-NH2) |  |
| > 100000 | CC(=O)N[C@@H](Cc1ccc(OP(=O)(O)O)cc1)C(=O)N(C)[C@@H](CC(C)C)C(=O)N1CCC[C@H]1C(=O)N[C@@H](CCC(N)=O)C(=O)N[C@H](C(N)=O)[C@@H](C)O (Ac-[pY][NMeL]PQT-NH2) |  |

| SMILES | IC50 [1] [nM] | IC50 [2] [nM] |
| --- | --- | --- |
| CC(=O)N[C@@H](Cc1ccc(OP(=O)(O)O)cc1)C(=O)N[C@@H](CC(C)C)C(=O)N1CCC[C@@H]1C(=O)N[C@@H](CCC(N)=O)C(=O)N[C@H](C(N)=O)[C@@H](C)O | > 100000 |  |
